Assay results: ChEMBL document CHEMBL1201862, “PubChem BioAssay data set” (2004)
Values belong to the compound of their own block, whether it stands above or below them. Active and inactive are the calls of the source.

Tests used:
[1] = NIH-3T3 fibroblast cytotoxicity, dose response, cytotoxicity control, cell-based, fluorescence, Alamar Blue, secondary assay (AID 2327); type: functional;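 also: NIH-3T3 mouse fibroblasts cultured with fluconazole at 8 µg/mL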
[2] = fluconazole-exposed Candida albicans growth modulators – fluorescence, retest, confirmation (AID 2467); type: functional, cell-based
[3] = Counterscreen for AddAB inhibitors: absorbance-based bacterial cell-based high throughput dose response assay for inhibitors of bacterial viability. [Related pubchem assays (depositor defined):AID435030, AID449728, AID449731, AID488942, AID488955, AID488956]; type: functional
Exodeoxyribonuclease V = biological target: T1, Exodeoxyribonuclease V (Escherichia coli (strain K12), UniProt P04993+P07648+P08394); experiment: RecBCD inhibition via phage-restricted bacterial growth – absorbance, V66 E. coli, mutant T4 phage, counter-screen for AddAB inhibitor project, dose response (AID 492957); type: functional, cell-based, Escherichia coli str. K-12 substr. MG1655
T1 sequence (P04993 whole entry): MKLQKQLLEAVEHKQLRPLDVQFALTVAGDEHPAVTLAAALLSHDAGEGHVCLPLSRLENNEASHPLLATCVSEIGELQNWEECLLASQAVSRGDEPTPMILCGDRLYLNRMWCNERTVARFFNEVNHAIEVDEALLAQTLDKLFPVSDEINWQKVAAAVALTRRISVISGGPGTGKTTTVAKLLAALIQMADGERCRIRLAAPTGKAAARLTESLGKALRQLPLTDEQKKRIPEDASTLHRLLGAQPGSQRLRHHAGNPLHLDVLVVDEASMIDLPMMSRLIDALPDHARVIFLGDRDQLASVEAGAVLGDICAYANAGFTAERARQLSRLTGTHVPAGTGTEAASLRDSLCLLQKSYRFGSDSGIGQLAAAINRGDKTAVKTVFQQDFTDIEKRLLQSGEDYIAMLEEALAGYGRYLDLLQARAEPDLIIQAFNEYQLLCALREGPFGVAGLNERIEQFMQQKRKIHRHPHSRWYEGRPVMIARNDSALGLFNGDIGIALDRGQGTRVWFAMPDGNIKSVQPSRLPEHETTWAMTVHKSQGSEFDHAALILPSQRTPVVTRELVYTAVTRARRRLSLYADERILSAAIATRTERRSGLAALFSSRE
T1 sequence (P07648 whole entry): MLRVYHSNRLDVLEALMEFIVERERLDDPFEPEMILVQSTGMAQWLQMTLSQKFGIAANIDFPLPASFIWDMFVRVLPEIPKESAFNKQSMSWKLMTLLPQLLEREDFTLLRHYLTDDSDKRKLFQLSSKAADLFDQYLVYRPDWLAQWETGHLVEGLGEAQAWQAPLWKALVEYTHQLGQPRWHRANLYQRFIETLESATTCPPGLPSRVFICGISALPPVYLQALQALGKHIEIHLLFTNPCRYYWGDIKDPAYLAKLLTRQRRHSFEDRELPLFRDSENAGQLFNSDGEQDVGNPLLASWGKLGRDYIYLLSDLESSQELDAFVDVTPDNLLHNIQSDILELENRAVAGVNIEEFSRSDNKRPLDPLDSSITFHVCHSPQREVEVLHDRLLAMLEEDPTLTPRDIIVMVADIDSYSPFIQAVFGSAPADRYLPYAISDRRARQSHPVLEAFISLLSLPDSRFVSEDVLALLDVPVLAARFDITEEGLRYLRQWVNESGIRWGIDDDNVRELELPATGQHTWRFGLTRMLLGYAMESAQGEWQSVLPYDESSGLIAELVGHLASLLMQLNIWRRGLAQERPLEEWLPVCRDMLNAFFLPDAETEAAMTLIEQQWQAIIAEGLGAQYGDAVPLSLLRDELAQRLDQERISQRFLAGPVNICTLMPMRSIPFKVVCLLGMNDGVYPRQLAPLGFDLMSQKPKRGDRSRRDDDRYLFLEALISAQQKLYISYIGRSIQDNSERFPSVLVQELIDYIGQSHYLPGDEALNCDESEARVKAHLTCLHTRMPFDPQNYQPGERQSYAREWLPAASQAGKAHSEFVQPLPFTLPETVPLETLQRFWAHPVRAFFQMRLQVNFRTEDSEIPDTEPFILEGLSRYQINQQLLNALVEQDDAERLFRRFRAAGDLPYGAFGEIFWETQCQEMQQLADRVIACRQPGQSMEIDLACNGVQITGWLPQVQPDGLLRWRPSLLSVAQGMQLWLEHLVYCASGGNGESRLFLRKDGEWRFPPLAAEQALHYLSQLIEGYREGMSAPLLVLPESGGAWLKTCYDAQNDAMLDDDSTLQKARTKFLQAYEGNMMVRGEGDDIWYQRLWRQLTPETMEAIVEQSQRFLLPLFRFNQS
T1 sequence (P08394 whole entry): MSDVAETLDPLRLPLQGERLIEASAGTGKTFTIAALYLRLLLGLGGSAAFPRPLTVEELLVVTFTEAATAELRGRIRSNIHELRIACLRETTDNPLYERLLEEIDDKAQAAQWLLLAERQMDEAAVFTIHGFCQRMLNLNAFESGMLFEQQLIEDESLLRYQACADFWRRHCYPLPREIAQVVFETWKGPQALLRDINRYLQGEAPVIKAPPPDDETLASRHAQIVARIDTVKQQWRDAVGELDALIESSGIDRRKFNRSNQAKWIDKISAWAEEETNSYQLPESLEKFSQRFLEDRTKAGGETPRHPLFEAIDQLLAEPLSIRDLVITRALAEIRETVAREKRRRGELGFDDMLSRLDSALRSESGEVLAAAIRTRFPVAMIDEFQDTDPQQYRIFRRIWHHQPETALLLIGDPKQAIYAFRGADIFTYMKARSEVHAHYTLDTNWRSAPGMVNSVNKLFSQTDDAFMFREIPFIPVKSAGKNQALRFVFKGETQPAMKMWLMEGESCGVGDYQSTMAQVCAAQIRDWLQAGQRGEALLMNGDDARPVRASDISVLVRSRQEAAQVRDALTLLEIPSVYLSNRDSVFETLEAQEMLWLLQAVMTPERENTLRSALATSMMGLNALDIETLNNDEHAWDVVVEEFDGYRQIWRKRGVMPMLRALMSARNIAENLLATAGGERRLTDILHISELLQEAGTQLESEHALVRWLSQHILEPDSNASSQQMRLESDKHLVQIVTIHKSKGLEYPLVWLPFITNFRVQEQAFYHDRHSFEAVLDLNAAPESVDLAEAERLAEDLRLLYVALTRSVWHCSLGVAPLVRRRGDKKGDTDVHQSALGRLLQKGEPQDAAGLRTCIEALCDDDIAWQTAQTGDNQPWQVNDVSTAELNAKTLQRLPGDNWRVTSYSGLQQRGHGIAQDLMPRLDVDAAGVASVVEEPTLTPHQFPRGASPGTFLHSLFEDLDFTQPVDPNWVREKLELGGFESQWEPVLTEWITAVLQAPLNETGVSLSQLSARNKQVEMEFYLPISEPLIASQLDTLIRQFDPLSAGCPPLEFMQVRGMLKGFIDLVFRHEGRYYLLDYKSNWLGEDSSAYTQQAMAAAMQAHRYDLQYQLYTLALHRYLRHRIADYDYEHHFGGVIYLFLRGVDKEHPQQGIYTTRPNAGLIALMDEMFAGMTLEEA

[4] = Luminescence Cell-Based Dose Retest to Confirm Inhibitors of Cancer Stem Cells. [Related pubchem assays (depositor defined):AID2717, AID2721]; type: functional; conditions: Homo sapiens
[5] = biological target: T2, Mannose-6-phosphate isomerase (Homo sapiens, UniProt P34949); experiment: phosphomannose isomerase inhibition – biochemical, fluorescence intensity, confirmation (AID 1535)
T2 sequence (P34949 whole entry): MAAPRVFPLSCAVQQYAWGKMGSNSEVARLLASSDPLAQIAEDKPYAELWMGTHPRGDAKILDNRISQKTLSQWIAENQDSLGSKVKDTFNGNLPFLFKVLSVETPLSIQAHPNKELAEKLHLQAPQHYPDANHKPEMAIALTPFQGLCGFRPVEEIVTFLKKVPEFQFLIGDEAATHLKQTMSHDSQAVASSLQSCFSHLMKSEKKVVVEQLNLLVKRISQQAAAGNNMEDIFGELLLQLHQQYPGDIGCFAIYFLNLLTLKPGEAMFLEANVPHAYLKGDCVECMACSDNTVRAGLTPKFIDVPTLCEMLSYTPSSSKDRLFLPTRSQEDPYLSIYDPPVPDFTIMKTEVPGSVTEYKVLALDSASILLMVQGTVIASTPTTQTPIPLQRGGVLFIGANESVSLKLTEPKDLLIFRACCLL
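For AC50 in this document: cells exposed to compound for roughly 70 hours or longer before luminescence read.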

SMILES: O=C1c2ccccc2NC(c2ccc(-c3cccc(Cl)c3)o2)N1O (stereo not drawn)
EC50 [1]: 33.4 µM (active) | EC50 [2]: 1.91 µM (active) | IC50 [3]: > 119 µM (inactive) | IC50 (Exodeoxyribonuclease V): > 119 µM (inactive) | AC50 [4]: 4.45 µM (active)

IC50 [5]: > 100 µM (inactive)
SMILES: Clc1nss/c1=N\c1ccccn1

SMILES: CCNc1c([N+](=O)[O-])c(=O)oc2ccccc12
IC50 [3]: > 119 µM (inactive) | IC50 (Exodeoxyribonuclease V): > 119 µM (inactive)
